According to patent US10435388B2, “Selective inhibitors of clinically important mutants of the EGFR tyrosine kinase” (CS PHARMATECH LIMITED, priority 2016, dated 2019):
pIC50: −log10 of the molar value. “And” between values parts separate entries of the source, which are not always exact repeats. Equal values may be shown once. Read-outs that look alike come from different tables or passages of the source.

Columns and labels:
INSR = target: T1, INSR (Homo sapiens, UniProt P06213); experiment: INSR inhibition assay (Caliper EZ Reader); format: biochemical; details: enzyme assay
T1 construct: purchased CARNA BIOSCIENCE 08-142
Experimental: (§1) Test compound was dissolved in DMSO at 30 mM. […] 20 nL of these compounds DMSO dilutes were dispensed into a new 384-well assay plate by Echo 550. […] 15 uL of kinase assay buffer containing INSR protein and substrate was transferred to assay plate and incubate at RT for 30 minutes. Kinase assay buffer supplemented with substrate peptides was employed as low control to monitor the background. 40 LM ATP was prepared in kinase assay buffer containing and 5 μL of ATP solution was added to each well to start the reaction. The assay plate was incubated at 25° C. for 180 minutes and the reaction was stopped by adding 40 μL of 0.5 M EDTA.
The result is analyzed in the same manner of […].

[1] = tested on: p-EGFR in H1975 cells (L858R/T790M double mutant EGFR)
[2] = tested on: LoVo cells (unmutated EGFR wild type); experiment: LoVo growth inhibition assay (cell proliferation), Method A; format: cell-based; details: Homo sapiens, cellular proliferation, 72 h, CellTiter-Glo (Table 1), read-out: LoVo IC50 (nM) WT
Experimental: (§2) Cell Proliferation Assays—Method A
LoVo Growth Inhibition Assay (Cell Proliferation)
The rest of the procedure was carried out in the same manner as described for the H1975 cells.

[3] = tested on: NCI-H1975 cells (EGFR L858R/T790 double mutant); experiment: H1975 inhibition assay (cell proliferation), Method A; format: cell-based; details: Homo sapiens; cellular proliferation, NCI-H1975 cells, 72 h, CellTiter-Glo (Table 1); read-out: NCI-H1975 IC50 (nM) DM
Experimental: as §2
H1975 Inhibition Assay (Cell Proliferation)
(§3) The final concentration was 4,000 cells/well. Add medium only as low control.
(§4) Day-2: Test compounds were dissolved in DMSO at 0.2 mM (200×).
(§5) Day-5: After 72 hours incubation, remove the plates from incubator and equilibrate at room temperature for 15 minutes. Incubate the CellTiter Glo reagents (Promega, G9243) at 37° C. before the experiment. The buffer was equilibrated to room temperature and used to dissolve the substrate. To determine the cell viability, add 30 μL of CellTiter-Glo reagent into each well to be detected. Then shake the plates at room temperature for 10 min and followed by plate read on Envision (PerkinElmer).
(§6) For estimation of IC50, the luminescence readout are transformed to % Inhibition by applying the following equation: The IC50 was then
(§7) [formula] calculated by fitting in XLFit to a four parameters logistic curve.

[4] = tested on: p-EGFR in PC9 cells (Exon 19 deletion EGFR); experiment: Exon19 deletion EGFR (activating single mutant) PC-9 cellular autophosphorylation assay; format: cell-based, human; details: 2 h treatment, ELISA
Experimental: Cellular EGFR Autophosphorylation Assays.
The human lung cell line PC9 (Exon 19 deletion EGFR) is obtained from the American type Culture Collection. […] Cells are grown in a humidified incubator at 37° C. with 5% CO2, Assays to measure cellular phosphorylation of endogenous p-EGFR in cell Iysates are carried out according to the protocol described in the R&D Systems DuoSet IC Human Phospho-EGF R ELISA (R&D Systems catalogue number #DYCI095). 40 μL of cells are seeded (10000 cells/well) in growth medium in Corning black, clear-bottomed 384-well plates and incubated at 37° C., with 5%0/CO2 overnight. […] Plates are incubated for a further 2 h, then following aspiration of medium, 40 μL×lysis buffer is added to each well. Greiner black high bind 384 well plates are coated with capture antibody and then blocked with 3% BSA. Following removal of block, 15 μL of lysate are transferred to the Greiner black high bind 384 well plates and incubated for 2 hours. Following aspiration and washing of the plates with PBS, 20 μL of detection antibody are added and incubated for 2 hours. […] The data obtained with each compound are exported into a suitable software package (such as Origin) to perform curve fitting analysis.

[5] = tested on: PC9 cells (EGFR d746-750 single mutant); experiment: PC-9 growth inhibition assay (cell proliferation), Method A; format: cell-based, human; details: Homo sapiens, PC-9; cellular proliferation, PC9 cells, 72 h, CellTiter-Glo (Table 1); read-out: PC9 IC50 (nM) SM
Experimental: as §2, §3, §4, §5, §6, §7
PC-9 Growth Inhibition Assay (Cell Proliferation)
The inhibition assay for PC-9 cells was processed in the same manner as described for the H1975 cells.

IGF-1R = target: T2, IGF-1R (Homo sapiens, UniProt P08069); experiment: IGF-1R inhibition assay (Caliper EZ Reader); format: biochemical; details: enzyme assay
T2 construct: purchased CARNA BIOSCIENCE 08-141
Experimental: as §1, with “IGF-1R” for “INSR”, “μM” for “LM”
Phosphorylated fluorescent-tagged peptides were differentiated from non-phosphorylated peptides by separating using Caliper EZ Reader II and the detection was directly converted to conversion ratio.

EGFR_T790M/L858R = EGFR_T790M/L858R (Homo sapiens, UniProt P00533, L858R/T790M); experiment: Enzyme assay, IC50 for double-mutant EGFR (EGFR_T790M/L858R) (Caliper); format: biochemical; details: enzyme phosphorylation assay; read-out: EGFR_L858R/T790 IC50
Experimental: (§8) Using the same technique as described in the previous paragraph, various mutated forms of the epidermal growth factor receptor may be isolated from appropriate cell lines which contain them. For example, the EGFR de1746-750 mutant protein may be extracted from PC-9 cells, and the L858R/T790M double mutant EGFR protein may be isolated from H1975 cells.
Determination of IC50 Values for Double-Mutant EGFR (EGFR_T790M/L858R)
Dilute all compounds to 500 μM stock solutions in 100% DMSO and make a serial of 4-fold dilution for 10 does. “Max” and “Min” control contain 100% DMSO. “Max” stands for […], “Min” stands for low control without compounds. Transfer 10 μl of compounds to 90 μl of 1× kinase base buffer to make intermediate dilution. […] Incubate at RT for 1 hr and 25 μl stop buffer to end up reaction. Collect conversion data from Caliper and conversion data from Caliper program. Fit the data in XLfit to obtain IC50 values.

Wt EGFR = target: T3, Wt EGFR (Homo sapiens, UniProt P00533); experiment: Enzyme assay, IC50 for wt EGFR (Caliper); format: biochemical; details: enzyme phosphorylation assay; read-out: EGFR_WT IC50
T3 construct: isolated from A431 human epidermoid carcinoma cells which overexpress EGF receptor; endogenous in cells; host or cells: A431 human epidermoid carcinoma cells (receptor purified on wheat germ agglutinin sepharose)
Experimental: Purification of Epidermal Growth Factor Receptor Tyrosine Kinase Human EGF receptor tyrosine kinase was isolated from A431 human epidermoid carcinoma cells which overexpress EGF receptor by the following methods. Cells were grown in roller bottles in 50% Delbuco's Modified Eagle and 50% HAM F-12 nutrient media (Gibco) containing 10% fetal calf serum. Approximately 10^9 cells were lysed in two volumes of buffer containing 20 mM 2-(4N-[2-hydroxyethyl]piperazin-1-yl)ethanesulfonic acid (hepes), pH 7.4, 5 mM ethylene glycol bis(2-aminoethyl ether) N,N,N′,N′-tetraacetic acid, 1% Triton X-1OO, 10% glycerol. 0.1 mM sodium orthovanadate, 5 mM sodium fluoride, 4 mM pyrophosphate, 4 mM benzamide, 1 mM dithiothreitol, 80 μg/mL aprotinin, 40 μg/mL leupeptin and 1 mM phenylmethylsulfonyl fluoride. After centrifugation at 25,000×g for 10 minutes, the supernatant was equilibrated for 2 h at […], with 10 mL of wheat germ agglutinin sepharose that was previously equilibrated with 50 mM Hepes, 10% glycerol, 0.1% Triton X-100 and 150 mM NaCl, pH 7.5, (equilibration buffer). Contaminating proteins were washed from the resin with 1M NaCl in equilibration buffer, and the enzyme was eluted with 0.5M N-acetyl-1-D-glucosamine in equilibration buffer, followed by 1 mM urea. The enzyme was eluted with 0.1 mg/ml EGF.
Determination of IC50 Values for Wt EGFR
Dilute all compounds to 500 μM stock solutions in 100% DMSO and make a serial of 4-fold dilution for 10 does. “Max” and “Min” control contain 100% DMSO. “Max” stands for […], “Min” stands for low control without compounds. Transfer 10 μl of compounds to 90 μl of Ix kinase base buffer to make intermediate dilution. Transfer 5 μl of intermediate dilution compounds to the 384-well assay plate, then 10 μl 2.5× enzyme buffer containing (20 nM EGFR, 5 mM DTT, 1× kinase base buffer) were added to assay plate. […] Incubate at RT for 1 hr and 25 μl stop buffer to end up reaction. Collect conversion data from Caliper and conversion data from Caliper program. Fit the data in XLfit to obtain IC50 values.

EGFR_d746-750 = EGFR_d746-750 (Homo sapiens, UniProt P00533, DEL746-750); experiment: Enzyme assay, IC50 for single mutant EGFR_d746-750 (Caliper); format: biochemical; details: enzyme phosphorylation assay
Experimental: as §8
Determination of IC50 Values for Single Mutant EGFR_d746-750
Dilute all compounds to 500 μM stock solutions in 100% DMSO and make a serial of 4-fold dilution for 10 doses. “Max” and “Min” control contain 100% DMSO. “Max” stands for […], “Min” stands for low control without compounds. Transfer 10 μl of compounds to 90 μl of 1× kinase base buffer to make intermediate dilution. […] Incubate at RT for 1 hr and 25 μl stop buffer to end up reaction. Collect conversion data from Caliper and conversion data from Caliper program. Fit the data in XLfit to obtain IC50 values.

T3 sequence (P00533 25-1210): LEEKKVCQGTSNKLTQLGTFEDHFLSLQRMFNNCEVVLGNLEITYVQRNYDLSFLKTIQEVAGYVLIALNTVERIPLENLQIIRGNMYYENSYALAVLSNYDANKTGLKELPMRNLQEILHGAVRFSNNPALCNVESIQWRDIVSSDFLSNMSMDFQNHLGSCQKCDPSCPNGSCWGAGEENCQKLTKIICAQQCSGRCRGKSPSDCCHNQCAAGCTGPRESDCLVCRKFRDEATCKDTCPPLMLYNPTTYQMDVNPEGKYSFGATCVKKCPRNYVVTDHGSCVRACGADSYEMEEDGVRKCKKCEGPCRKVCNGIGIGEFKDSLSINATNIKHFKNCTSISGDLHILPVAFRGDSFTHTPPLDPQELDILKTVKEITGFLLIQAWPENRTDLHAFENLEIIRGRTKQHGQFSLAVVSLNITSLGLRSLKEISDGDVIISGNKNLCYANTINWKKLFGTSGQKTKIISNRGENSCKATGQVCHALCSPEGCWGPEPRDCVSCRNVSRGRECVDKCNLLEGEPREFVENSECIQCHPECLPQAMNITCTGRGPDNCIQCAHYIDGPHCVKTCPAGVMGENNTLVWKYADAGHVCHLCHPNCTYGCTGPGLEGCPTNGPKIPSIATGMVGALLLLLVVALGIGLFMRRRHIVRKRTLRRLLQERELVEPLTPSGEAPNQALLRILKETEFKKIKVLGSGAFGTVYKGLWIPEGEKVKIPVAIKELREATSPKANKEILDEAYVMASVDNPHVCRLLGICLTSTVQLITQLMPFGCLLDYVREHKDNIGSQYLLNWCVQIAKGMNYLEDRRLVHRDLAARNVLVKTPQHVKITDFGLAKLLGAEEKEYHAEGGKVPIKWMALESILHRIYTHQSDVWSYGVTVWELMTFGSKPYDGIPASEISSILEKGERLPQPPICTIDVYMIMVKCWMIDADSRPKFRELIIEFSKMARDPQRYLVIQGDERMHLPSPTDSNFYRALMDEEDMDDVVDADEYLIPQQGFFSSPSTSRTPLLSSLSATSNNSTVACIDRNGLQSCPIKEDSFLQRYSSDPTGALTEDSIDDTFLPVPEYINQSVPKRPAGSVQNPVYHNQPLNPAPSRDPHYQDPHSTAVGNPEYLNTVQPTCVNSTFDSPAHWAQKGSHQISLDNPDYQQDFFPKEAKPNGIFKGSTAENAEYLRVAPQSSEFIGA
Chain of EGFR_T790M/L858R (P00533 25-1210 T790M/L858R): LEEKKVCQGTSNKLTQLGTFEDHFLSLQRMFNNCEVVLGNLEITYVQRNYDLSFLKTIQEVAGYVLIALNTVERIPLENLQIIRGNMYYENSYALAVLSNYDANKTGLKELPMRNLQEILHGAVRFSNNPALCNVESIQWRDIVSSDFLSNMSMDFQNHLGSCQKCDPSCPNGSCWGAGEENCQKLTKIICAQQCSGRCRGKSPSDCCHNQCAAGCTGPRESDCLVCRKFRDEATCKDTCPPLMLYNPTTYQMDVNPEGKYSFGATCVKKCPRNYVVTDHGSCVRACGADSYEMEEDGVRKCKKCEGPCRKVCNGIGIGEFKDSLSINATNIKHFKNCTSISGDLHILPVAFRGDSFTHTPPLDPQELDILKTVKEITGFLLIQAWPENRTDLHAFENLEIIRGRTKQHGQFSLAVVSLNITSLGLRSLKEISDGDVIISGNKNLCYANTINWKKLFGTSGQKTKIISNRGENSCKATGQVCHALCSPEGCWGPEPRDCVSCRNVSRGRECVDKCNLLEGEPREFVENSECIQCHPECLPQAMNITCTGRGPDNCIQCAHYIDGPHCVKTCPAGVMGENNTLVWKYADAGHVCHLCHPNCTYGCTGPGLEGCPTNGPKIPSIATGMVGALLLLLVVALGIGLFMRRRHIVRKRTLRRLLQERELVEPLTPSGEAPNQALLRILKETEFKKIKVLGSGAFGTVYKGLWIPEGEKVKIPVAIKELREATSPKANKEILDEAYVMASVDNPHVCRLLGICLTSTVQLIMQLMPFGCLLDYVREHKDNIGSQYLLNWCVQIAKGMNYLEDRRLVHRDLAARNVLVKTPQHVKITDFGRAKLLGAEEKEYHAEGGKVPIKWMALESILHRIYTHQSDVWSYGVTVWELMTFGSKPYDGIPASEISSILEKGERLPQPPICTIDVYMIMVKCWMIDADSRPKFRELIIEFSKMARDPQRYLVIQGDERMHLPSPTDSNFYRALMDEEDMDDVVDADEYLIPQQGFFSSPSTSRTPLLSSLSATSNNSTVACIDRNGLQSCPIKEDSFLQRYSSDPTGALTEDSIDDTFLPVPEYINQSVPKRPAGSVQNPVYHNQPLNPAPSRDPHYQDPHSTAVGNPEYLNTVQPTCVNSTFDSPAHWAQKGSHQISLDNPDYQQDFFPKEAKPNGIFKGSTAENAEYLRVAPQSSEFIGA
Chain of EGFR_d746-750 (P00533 with tags, fused parts or gaps DEL746-750): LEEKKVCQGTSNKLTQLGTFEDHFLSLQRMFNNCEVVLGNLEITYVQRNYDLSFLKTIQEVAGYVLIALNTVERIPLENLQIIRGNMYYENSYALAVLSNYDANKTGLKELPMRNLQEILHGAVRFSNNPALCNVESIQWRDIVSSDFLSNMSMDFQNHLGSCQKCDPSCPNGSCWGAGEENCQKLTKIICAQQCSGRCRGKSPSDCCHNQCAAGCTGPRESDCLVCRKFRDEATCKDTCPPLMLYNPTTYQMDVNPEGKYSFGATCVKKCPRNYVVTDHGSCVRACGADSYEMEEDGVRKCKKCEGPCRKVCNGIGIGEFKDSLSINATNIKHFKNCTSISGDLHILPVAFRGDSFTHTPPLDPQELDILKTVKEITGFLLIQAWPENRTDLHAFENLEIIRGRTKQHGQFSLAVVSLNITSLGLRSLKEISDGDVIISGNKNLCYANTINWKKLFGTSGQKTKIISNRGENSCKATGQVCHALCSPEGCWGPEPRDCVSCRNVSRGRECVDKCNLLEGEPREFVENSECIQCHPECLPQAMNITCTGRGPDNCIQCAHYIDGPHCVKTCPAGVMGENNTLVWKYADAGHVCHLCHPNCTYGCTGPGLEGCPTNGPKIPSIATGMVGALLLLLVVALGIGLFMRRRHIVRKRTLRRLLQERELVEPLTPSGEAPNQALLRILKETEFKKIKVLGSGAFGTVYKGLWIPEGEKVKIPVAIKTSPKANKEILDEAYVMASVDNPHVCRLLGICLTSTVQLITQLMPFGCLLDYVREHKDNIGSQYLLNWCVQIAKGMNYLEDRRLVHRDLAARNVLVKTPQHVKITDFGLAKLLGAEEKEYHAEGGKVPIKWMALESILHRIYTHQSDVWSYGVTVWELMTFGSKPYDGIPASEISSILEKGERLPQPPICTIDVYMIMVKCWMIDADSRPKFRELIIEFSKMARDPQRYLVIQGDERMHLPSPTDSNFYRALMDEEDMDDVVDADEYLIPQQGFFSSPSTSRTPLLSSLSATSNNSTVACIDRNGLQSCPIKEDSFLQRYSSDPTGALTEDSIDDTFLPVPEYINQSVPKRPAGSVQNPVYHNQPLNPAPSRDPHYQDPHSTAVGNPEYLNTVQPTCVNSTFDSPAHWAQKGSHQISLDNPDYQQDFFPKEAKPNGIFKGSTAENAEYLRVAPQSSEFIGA
T2 sequence (P08069 959-1367 limits assumed): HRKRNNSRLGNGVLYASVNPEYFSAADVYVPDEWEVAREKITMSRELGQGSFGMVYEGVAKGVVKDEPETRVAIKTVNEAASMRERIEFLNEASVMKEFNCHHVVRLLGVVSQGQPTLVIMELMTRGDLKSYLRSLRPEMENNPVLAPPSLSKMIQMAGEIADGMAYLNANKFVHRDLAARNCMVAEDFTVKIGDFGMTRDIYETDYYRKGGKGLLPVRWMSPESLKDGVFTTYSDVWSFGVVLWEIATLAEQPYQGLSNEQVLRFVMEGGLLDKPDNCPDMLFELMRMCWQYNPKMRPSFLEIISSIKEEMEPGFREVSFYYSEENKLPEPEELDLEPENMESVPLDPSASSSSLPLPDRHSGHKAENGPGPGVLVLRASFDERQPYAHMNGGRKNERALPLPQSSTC

IC50 [2] [nM] | IC50 [3] [nM] | IC50 [5] [nM] | pIC50 (EGFR_T790M/L858R) | pIC50 (Wt EGFR) | pIC50 (EGFR_d746-750) | SMILES | IC50 (INSR) | IC50 ([1]; Homo sapiens, NCI-H1975, 2 h, read-out: H1975 IC50 (nM), cellular EGFR autophosphorylation, 2 h treatment, ELISA) [nM] | pIC50 ([1]; read-out: H1975 IC50, cellular EGFR autophosphorylation, 2 h treatment, ELISA) | pIC50 [4] | pIC50 ([4]; Homo sapiens, PC-9, 2 h) | IC50 (IGF-1R)
3570 | 3.1 | 6.8 | 9.15 | 8.39 | 8.62 | C=CC(=O)Nc1cc(Nc2nccc(-n3ccc4ccccc43)n2)c(OC)cc1N(C)CCN(C)C [Example 1] | – | – | – | – | – | –
2630 | 1.7 | 1.6 | 8.92 | 8.96 | 9.07 | C=CC(=O)Nc1cc(Nc2nccc(-n3cc(C(N)=O)c4ccccc43)n2)c(OC)cc1N(C)CCN(C)C [Example 7, N-(2-(N-(2-(N,N-Dimethylamino)ethyl)-N-methylamino)-4-methoxy-5-(4-(3-carboxamidoindol-1-yl)pyrimidin-2-ylamino)phenyl) propenamide] | – | – | – | – | – | –
6650 | 2.9 | 3.5 | 8.74 | 8.68 | 8.92 | C=CC(=O)Nc1cc(Nc2nccc(-n3cc(CO)c4ccccc43)n2)c(OC)cc1N(C)CCN(C)C [Example 8, N-(2-(N-(2-(N,N-Dimethylamino)ethyl)-N-methylamino)-4-methoxy-5-(4-(3-(hydroxymethyl)indol-1-yl)pyrimidin-2-ylamino)phenyl) propenamide] | – | – | – | – | – | –
5860 | 2.4 | 3.4 | 8.89 | 8.82 | 8.96 | C=CC(=O)Nc1cc(Nc2nccc(-n3cc(S(C)(=O)=O)c4ccccc43)n2)c(OC)cc1N(C)CCN(C)C [Example 9, N-(2-(N-(2-(N,N-Dimethylamino)ethyl)-N-methylamino)-4-methoxy-5-(4-(3-(methylsulfonyl)indol-1-yl)pyrimidin-2-ylamino)phenyl) propenamide] | – | – | – | – | – | –

The next lines start with the molecule.

SMILES | IC50 [2] [nM] | IC50 [3] [nM] | IC50 [5] [nM] | pIC50 (EGFR_T790M/L858R) | pIC50 (Wt EGFR) | pIC50 (EGFR_d746-750) | IC50 (INSR) | IC50 ([1]; Homo sapiens, NCI-H1975, 2 h, read-out: H1975 IC50 (nM), cellular EGFR autophosphorylation, 2 h treatment, ELISA) [nM] | pIC50 ([1]; read-out: H1975 IC50, cellular EGFR autophosphorylation, 2 h treatment, ELISA) | pIC50 [4] | pIC50 ([4]; Homo sapiens, PC-9, 2 h) | IC50 (IGF-1R)
C=CC(=O)Nc1cc(Nc2nccc(-c3cn(C)c4ccccc34)n2)c(OC)cc1N(C)CCN(C)C [AZD-9291] | 2860 | […] | 8.4 | – | – | – | […] | 22.7 | 7.94 | 8.14 | 7.92 | 249 nM and 321 nM
C=CC(=O)Nc1cc(Nc2nccc(-n3cc(C)c4ccccc43)n2)c(OC)cc1N(C)CCN(C)C [Example 2, N-(2-(N-(2-(N,N-Dimethylamino)ethyl)-N-methylamino)-4-methoxy-5-(4-(3-methylindol-1-yl)pyrimidin-2-ylamino)phenyl) propenamide] | 5030 | 7.5 | 12.3 | 8.89 | 8.15 | 8.51 | – | – | – | – | – | –
C=CC(=O)Nc1cc(Nc2nccc(-n3cc(Cl)c4ccccc43)n2)c(OC)cc1N(C)CCN(C)C [Example 3, N-(2-(N,N-(2-(N,N-Dimethylamino)ethyl)-N-methylamino)-4-methoxy-5-(4-(3-chloroindol-1-yl)pyrimidin-2-ylamino)phenyl) propenamide] | 2810 | 17.9 | 23.3 | 8.82 | 8.08 | 8.28 | – | – | – | – | – | –
C=CC(=O)Nc1cc(Nc2nccc(-n3cc(C#N)c4ccccc43)n2)c(OC)cc1N(C)CCN(C)C [Example 4, N-(2-(N-(2-(N,N-Dimethylamino)ethyl)-N-methylamino)-4-methoxy-5-(4-(3-cyanoindol-1-yl)pyrimidin-2-ylamino)phenyl) propenamide] | 2890 | 18.8 | 25.9 | 9.08 | 8.42 | 8.59 | – | – | – | – | – | –
